Results on 1 molecule are retold here after article PMC6222871, “Suppression of Hepatitis C Virus Genome Replication and Particle Production by a Novel Diacylglycerol Acyltransferases Inhibitor” (Molecules : A Journal of Synthetic Chemistry and Natural …, 2018).

Data set [1] deals with HCV NS3 (Huh7.5-J6/JFH1, genotype 2a). Briefly: western blot of HCV NS3 protein in Huh7.5-J6/JFH1 cells. As to the method: Due to the tight coupling of viral genome replication to its protein expression, inhibition of viral RNA genome replication leads to a subsequent reduction of viral protein expression.
(A) Dose-dependent western blot analysis of Huh7.5-J6/JFH1 cells treated with increasing concentrations of 10j for 72 h by measuring protein expression levels of HCV NS3 relative to the β-actin. Daclatasvir, an NS5A inhibitor was used as a positive control. (B) Time-dependent western blot analysis of J6/JFH1 RNA-transfected Huh7.5 cells treated with 8 μM of 10j for increasing periods of time analyzed by measuring protein expression levels of HCV NS3 relative to the β-actin. (C,D) Same experiments were performed as in (A,B) to study effects of 10j on the expression levels of the NS5A protein of Huh7.5-Bart79I cells in a dose- as well as time-dependent manners.
Western blot analysis of Huh7.5-J6/JFH1 or Bart79I cells treated with 10j was conducted as previously described. Relative amounts of HNF4α proteins were quantified by using an HNF4α mouse monoclonal antibody (M04), clone 4E2 (Abnova) with the dilution of 1:1000.
(In western blotting, separated proteins are transferred to a membrane and probed.)

The next data set relates to Huh7.5 cells. As to the kind of experiment: TG quantification assay in Huh7.5 cells. The data set is classed as cell-based. The settings on record: 8 μM, 72 h. Here is the method:
Cells were washed with cold PBS, suspended, and homogenized in 1 mL of 5% NP-40/ddH2O solution. Then, homogenized cells were slowly heated to 90 °C for 5 min or until the NP-40 becomes cloudy, then cooled down to room temperature. Previous step was repeated to solubilize all TG. Cells were centrifuged for 2 min at top speed using a microcentrifuge to remove any insoluble material. Samples were diluted 10-fold with ddH2O before proceeding with the assay. […] Samples were added with 50 μL of reaction mix into each well and incubated at room temperature for 60 min while protected from light. Fluorescence was measured by using a fluorometric reader with Ex/Em = 535/590 nm. The amount of TG from standard sample was calculated using the following equation: Ts=Corrected absorbance−(y−intercept)/slope The amount of intracellular TG was calculated using the following equation: Concentration=Ts/Sv*D where the Ts is the amount of TG from standard curve and Sv is the volume of sample added to sample wells and D is the sample dilution factor.

Data set [2] deals with Huh7.5-J6/JFH1 cells. As to the kind of experiment: FACS analysis of LD-positive (BODIPY) J6/JFH1 cells. The class given is cell-based. The following applies: 8 μM, 72 h, with BODIPY; DMSO 78.2%. As to the method: Huh7.5-J6/JFH1 cells were plated onto a 10 cc plate (Corning) and supplemented with either DMSO or 8 μM of 10j for 72 h. Then, Huh7.5-J6/JFH1 cells were fixed by using 4% paraformaldehyde for 10 min and permeabilized using 0.1% saponin in PBS for 20 min. Huh7.5-J6/JFH1 cells were stained with 0.001% BODIPY 493/503 D3922 (Invitrogen) in saponin for 1 h at 4 °C. The FACSAriaIII (BD Biosciences, Franklin Lakes, NJ, USA) was used for the flow cytometric analysis as previously described.
On the technique in general: Flow cytometry measures light scatter and fluorescence of single cells or particles in a stream.

The target in a further data set is T1, DGAT-1 (Homo sapiens, UniProt O75907).
T1 construct: expressed in transfected cells; host or cells: 293T cells (membrane fraction)
T1 sequence (O75907 1-488): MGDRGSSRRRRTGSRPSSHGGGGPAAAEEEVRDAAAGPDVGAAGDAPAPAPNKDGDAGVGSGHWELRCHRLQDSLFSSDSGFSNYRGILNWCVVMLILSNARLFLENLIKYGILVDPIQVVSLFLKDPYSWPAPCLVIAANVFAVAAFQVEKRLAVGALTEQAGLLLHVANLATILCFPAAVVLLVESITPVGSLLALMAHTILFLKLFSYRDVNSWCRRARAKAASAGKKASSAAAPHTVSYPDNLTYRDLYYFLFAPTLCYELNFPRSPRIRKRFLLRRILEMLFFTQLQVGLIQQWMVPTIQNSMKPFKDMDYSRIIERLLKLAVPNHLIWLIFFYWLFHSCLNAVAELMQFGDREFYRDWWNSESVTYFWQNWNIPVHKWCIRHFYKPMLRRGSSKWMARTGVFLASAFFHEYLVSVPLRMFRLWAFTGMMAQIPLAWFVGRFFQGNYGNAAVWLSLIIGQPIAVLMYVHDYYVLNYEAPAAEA
Briefly: DGAT-1 in vitro assay, membrane fractions of DGAT-1-transfected 293T cells, NBD-palmitoyl CoA, TLC. The data set is classed as biochemical. Here is the method:
pcDNA3.1-DGAT1 plasmid was transfected into 293T cells by using a lipofectamine 2000 transfection reagent (Invitrogen) as described by the manufacturer. At 24 h after transfection, transfected cells were harvested and cells were resuspended with 500 μL of 50 mM Tris-HCL/250 mM sucrose. Resuspended cells were disrupted by 15 passages through a 27-gauge needle and centrifugation at 600× g for 5 min. The supernatant was ultracentrifuged at […] for 30 min and the supernatant was discarded. The pellets were resuspended in a total of 500 μL of 50 mM ice-cold Tris-HCl/250 mM sucrose. Then, a master mix containing 20 μL of 1 M-Tris-HCl, 4 μL of 1 M MgCl2, 10 μL of 4 mM DOG in acetone, 10 μL of 12 mg/mL BSA and 10 μL of 500 μM NBD-palmitoyl CoA in 20 mM Tris was prepared and incubated at 37 °C for 2 min. Also, 50 μg total membrane proteins were incubated with 10j and A922500 at 37 °C for 1 h. Extracted proteins were added into master mix and incubated at 37 °C for 10 min. The reaction was terminated by adding 4 mL CHCl3/methanol (2:1, v/v). Samples were mixed by vortexing and 800 μL of water was added and remixed. Samples were allowed to sit at room temperature for 1 h. […] Plate was allowed to air dry for 1 h before quantification of reaction products. The synthesized TG was determined by the ChemiDoc imaging system (Bio-Rad, Hércules, CA, USA).

Data set [3] deals with Huh7.5-J6/JFH1 cells. Briefly: immunofluorescence of dsRNA (J2 antibody) and LD (Oil-Red-O) in Huh7.5-J6/JFH1 cells. The class given is cell-based, hepatitis C virus. The following applies: increasing concentrations, 72 h.
Method: They were treated with a series of increasing concentrations of 10j for 72 h. […] Since double-stranded (ds) RNAs were regarded as a genuine marker for endogenous viral RNA synthesis due to their roles as intermediates during viral RNA replication, we wished to test effect of 10j on expression and localization of the viral dsRNAs. For this purpose, Huh7.5-J6/JFH1 cells were treated with a series of increasing concentrations of 10j for 72 h. Then, dsRNAs were visualized by using a dsRNA-specific J2 antibody. […] To study effects of 10j on localization of LDs in parallel, LDs were also co-stained in an Oil-Red-O (ORO) dye.
Immunofluorescence analysis of Huh7.5-J6/JFH1 or Huh7.5-JFH1-5A-GFP cells in the presence of 10j was conducted as previously described [35]. Fluorescence were examined and captured by Nikon confocal laser scanning microscopic system. LD content was quantified using the ImageJ program.
In the next data set the test system is miR122. Briefly: miR122 RT-PCR in Huh7.5-J6/JFH1 cells. The class given is cell-based. The following applies: up to 8 μM, 72 h. The source says: Since DGATs play an important role in maintaining liver-likeness in hepatocytes, the antiviral effect of 10j might be due to mere loss of this liver-specific character. […] In addition, HNF4α was also reported to be reduced in DGAT1-silenced cell lines. Therefore, we wished to test effects of 10j on HNF4α.

Data set [4] has as its system DGATs (rat liver microsome). More on the design: method as in PMID 23141914, PMID 23242135. The following applies: cited from earlier work.

The structures appear in SMILES notation. Like-named read-outs stand apart in the source and are kept apart here.

In general, IC50 refers to the concentration that gives 50% inhibition. Consider `O=C(NCc1ccco1)c1ccc2[nH]c(COc3ccc(C45CC6CC(CC(C6)C4)C5)cc3)nc2c1` [10j, 2-{[4-(adamant-1yl)phenoxy]methyl)-N-(furan-2-ylmethyl)-1H-benzo[d]imidazole-5-carboxamide], for which the EC50 in data set [1] (Hepatitis C virus, GETYPE2A, 72 h, read-out: concentration required for reducing 50% of HCV protein expression (EC50)) worked out at 3.6 µM. Moreover, the “time required for reducing 50% of HCV protein expression (T1/2)” value in data set [1] (genotype 2a, 10 μM of 10j, 8 μM (figure legend)) turned out to be 37.8 h. Besides, the “reduction of endogenous level of TG” value in the data set with Huh7.5 cells is recorded as 83%. For the same molecule, in the data set on Huh7.5-J6/JFH1 cells [2], the “relative number of LD-positive J6/JFH1 cells” value came to 38.6%. Further, the IC50 at DGAT-1 (DGAT-1 membrane fractions from 293T cells, read-out: IC50, in vitro synthesis of TG by DGAT-1) is 17.4 µM; on DGAT-1 (Table 2 and Figure 6E, read-out: IC50 required for inhibition of the enzymatic DGAT activities in vitro (summary)), above 5 µM; in data set [4] it was 4.4 µM. Further, in the data set on Huh7.5-J6/JFH1 cells [3], the “amount of dsRNAs” value is listed as “significantly reduced”. In the data set with Huh7.5-J6/JFH1 cells [3], the “expression level of total LDs (Oil-Red-O)” value is “dose-dependent reduction”. In addition, in the data set on miR122, the “expression levels of miR122” value was “increased levels of miR122”.
